Experimental findings from ChEMBL document CHEMBL4196033, “Potent hydrazone derivatives targeting esophageal cancer cells” (Eur J Med Chem, 2018) are described below.

The IC50 is the concentration needed to halve the response being measured. Lower therefore signals higher potency.

The test system of one data set is MCF7. Description: Antiproliferative activity against human MCF7 cells after 72 hrs by MTT assay. The data set is classed as functional, cell-based. To be noted: MCF7, 72 h. In general terms: Tetrazolium assays rely on reduction of a dye to a coloured formazan, in cell work by metabolically active cells.
The subject of data set [1] is EC9706. Description: Antiproliferative activity against human EC9706 cells after 48 hrs by MTT assay. It counts as functional, cell-based. To be noted: EC9706, 48 h.
Data set [2] deals with EC9706. Nature of the data set: Cell cycle arrest in human EC9706 cells assessed as increase in G0/G1 phase population at 2 uM after 24 hrs by propidium iodide staining based flow cytometry relative to control. It counts as functional.
The test system of data set [3] is EC9706. Description: Induction of apoptosis in human EC9706 cells assessed as early apoptotic cells at 4 uM after 48 hrs in presence of caspase inhibitor Z-VAD-FMK by Annexin V-FITC/propidium iodide staining based flow cytometry (reference value: 0.33%). It counts as functional.
The test system of data set [4] is EC9706. Description: Induction of apoptosis in human EC9706 cells assessed as late apoptotic cells at 8 uM after 48 hrs in presence of caspase inhibitor Z-VAD-FMK by Annexin V-FITC/propidium iodide staining based flow cytometry (reference value: 1.27%). The data set is classed as functional.
In data set [5] the test system is ECa-109 cell line. Description: Induction of apoptosis in human EC109 cells assessed as early apoptotic cells at 4 uM after 48 hrs in presence of caspase inhibitor Z-VAD-FMK by Annexin V-FITC/propidium iodide staining based flow cytometry (reference value: 0.52%). The data set is classed as functional. (In general: In flow cytometry, cells or beads pass a laser one at a time.)

The test system of data set [6] is EC9706. Nature of the data set: Induction of ROS generation in human EC9706 cells at 8 uM after 24 hrs by DCFH-DA staining based flow cytometry relative to control. The data set is classed as functional.
The test system of data set [7] is EC9706. Nature of the data set: Induction of apoptosis in human EC9706 cells assessed as increase in p53 protein expression after 48 hrs by Western blot analysis. The data set is classed as functional, cell-based.
In data set [8] the test system is ECa-109 cell line. Nature of the data set: Induction of apoptosis in human EC109 cells assessed as decrease in Bid protein expression at 2 to 8 uM after 48 hrs by Western blot analysis. It counts as functional, cell-based. (In western blotting, separated proteins are transferred to a membrane and probed.)
For data set [9], the system named is EC9706. Description: Effect on Prxs-3 protein expression in human EC9706 cells at 2 to 8 uM after 48 hrs by Western blot analysis. It counts as functional, cell-based.
Another data set relates to Mus musculus. Description: Acute toxicity in C57BL/6 mouse assessed as change in physical phenotype at 2 g/kg, ig measured for 2 weeks. It counts as organism-based. The note with it: in vivo, po, 2000 mg/kg, 336 h.

Calls of active or inactive are those of the source. No cut-off for these calls is given here.

For `COc1ccc(/C=N/NC(=O)c2cccc(S(=O)(=O)N3CCOCC3)c2)c(O)c1`, the IC50 in the data set with MCF7 amounted to 5.14 µM; in the data set with EC9706 [1], 7.51 µM. Moreover, the “fold change (FC)” value is given as 1.07 with EC9706 [2] and 1.95 in the data set with EC9706 [6]. Besides, the Activity was 13.3% in the data set on EC9706 [3]; 25% with EC9706 [4]; 9.34% with ECa-109 cell line [5]; “Dose-dependent effect” in the data set on EC9706 [7]; “Non-Toxic” in the data set on Mus musculus. Besides, the result in the data set on ECa-109 cell line [8] and in the data set on EC9706 [9] was Active.
